Paper PMC11417675, “Systematic Evaluation of Tyrosine Kinase Inhibitors as OATP1B1 Substrates Using a Competitive Counterflow Screen” (Cancer Research Communications, 2024)
Read-outs that look alike come from different tables or passages of the source.

What was measured:
OATP1B1 [1] = settings: cited from earlier work; for reported to inhibit OATP1B1: literature reports, ref not given
VEGFR2 = target: T1, VEGFR2 (Homo sapiens, UniProt P35968); test: IP-based VEGFR kinase assay (ADP-Glo) in OATP1B1-overexpressing vs vector control HEK293 cells; assay type: cell-based; settings: 10 μmol/L, 1 h; OATP1B1-overexpressing cells compared with control cells not overexpressing OATP1B1
T1 construct: expressed in transfected cells; host or cells: HEK293 (OATP1B1-overexpressing or empty vector)
T1 sequence (P35968 20-1356, species assumed): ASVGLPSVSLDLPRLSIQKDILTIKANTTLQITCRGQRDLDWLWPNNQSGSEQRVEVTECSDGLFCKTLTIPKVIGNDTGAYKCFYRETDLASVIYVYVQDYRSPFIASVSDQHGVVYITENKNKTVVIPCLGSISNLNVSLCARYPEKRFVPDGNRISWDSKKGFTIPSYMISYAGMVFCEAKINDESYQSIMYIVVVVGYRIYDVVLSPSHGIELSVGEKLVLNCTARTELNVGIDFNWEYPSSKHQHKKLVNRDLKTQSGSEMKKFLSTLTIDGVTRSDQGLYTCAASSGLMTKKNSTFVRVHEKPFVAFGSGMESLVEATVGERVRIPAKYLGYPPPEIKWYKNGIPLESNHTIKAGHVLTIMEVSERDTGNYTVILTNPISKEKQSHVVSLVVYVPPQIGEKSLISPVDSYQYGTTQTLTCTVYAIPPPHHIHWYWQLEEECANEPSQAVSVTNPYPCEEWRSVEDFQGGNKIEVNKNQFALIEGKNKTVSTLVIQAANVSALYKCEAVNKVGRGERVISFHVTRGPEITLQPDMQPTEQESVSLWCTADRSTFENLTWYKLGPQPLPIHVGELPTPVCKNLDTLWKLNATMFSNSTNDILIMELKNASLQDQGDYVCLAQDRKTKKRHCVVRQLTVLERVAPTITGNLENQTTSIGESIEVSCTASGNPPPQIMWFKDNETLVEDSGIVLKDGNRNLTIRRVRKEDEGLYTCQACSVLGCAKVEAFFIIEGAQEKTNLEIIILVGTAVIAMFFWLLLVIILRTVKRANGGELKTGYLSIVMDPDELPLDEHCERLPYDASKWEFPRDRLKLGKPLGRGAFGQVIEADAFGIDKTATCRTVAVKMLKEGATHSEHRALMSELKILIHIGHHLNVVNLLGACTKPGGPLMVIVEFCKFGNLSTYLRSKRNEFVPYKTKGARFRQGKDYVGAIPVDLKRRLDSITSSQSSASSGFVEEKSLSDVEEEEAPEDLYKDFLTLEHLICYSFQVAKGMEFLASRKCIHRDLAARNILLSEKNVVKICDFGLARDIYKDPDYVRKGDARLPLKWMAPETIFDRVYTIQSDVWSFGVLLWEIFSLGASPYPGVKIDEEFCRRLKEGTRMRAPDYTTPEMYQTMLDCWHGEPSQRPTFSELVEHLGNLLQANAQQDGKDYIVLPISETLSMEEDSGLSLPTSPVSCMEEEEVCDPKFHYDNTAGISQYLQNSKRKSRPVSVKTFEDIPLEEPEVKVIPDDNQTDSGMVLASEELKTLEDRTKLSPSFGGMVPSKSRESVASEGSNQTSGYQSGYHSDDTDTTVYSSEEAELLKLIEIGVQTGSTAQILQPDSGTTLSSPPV

OATP1B1 [2] = target: T2, OATP1B1 (Homo sapiens, UniProt Q9Y6L6); test: Competitive counterflow (CCF) assay, efflux of preloaded [3H]-EβG in OATP1B1-overexpressing HEK293 cells; settings: for efflux of preloaded radiolabeled EβG induced by control substrates: 100 μmol/L, 30 min, after 1 h preload with 0.01 μmol/L [3H]-EβG; for hit in CCF assay (efflux >50% relative to EβG): at all three tested concentrations (1, 10, 100 μmol/L)
T2 sequence (Q9Y6L6 1-691): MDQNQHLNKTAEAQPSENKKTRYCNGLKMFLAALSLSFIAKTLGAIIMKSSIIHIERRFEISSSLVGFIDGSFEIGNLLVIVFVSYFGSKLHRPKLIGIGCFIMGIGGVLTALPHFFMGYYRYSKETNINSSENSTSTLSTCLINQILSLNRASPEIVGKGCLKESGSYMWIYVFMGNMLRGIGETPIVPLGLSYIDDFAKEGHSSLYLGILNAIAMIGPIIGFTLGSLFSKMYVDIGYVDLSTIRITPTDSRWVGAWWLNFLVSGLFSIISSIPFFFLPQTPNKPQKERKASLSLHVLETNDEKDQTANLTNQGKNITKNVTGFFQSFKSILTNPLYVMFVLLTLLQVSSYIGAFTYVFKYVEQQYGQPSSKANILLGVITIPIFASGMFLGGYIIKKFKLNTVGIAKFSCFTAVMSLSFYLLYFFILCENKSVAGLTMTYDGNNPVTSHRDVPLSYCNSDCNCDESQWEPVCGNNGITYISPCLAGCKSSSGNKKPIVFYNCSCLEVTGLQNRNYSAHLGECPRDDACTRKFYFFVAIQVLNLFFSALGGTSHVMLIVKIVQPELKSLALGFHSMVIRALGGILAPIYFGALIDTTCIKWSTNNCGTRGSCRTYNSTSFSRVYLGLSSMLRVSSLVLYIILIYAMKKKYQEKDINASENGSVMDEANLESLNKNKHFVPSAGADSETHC
Protocol: Cellular accumulation assays were performed in human embryonic kidney cells (HEK293; RRID: CVCL_0045) that were genetically engineered to overexpress human OATP1B1 ([23]–[25]). Cell lines were authenticated by Applied Biosystems AmpFISTR Identifiler testing with PCR amplification. […] All cells were used within passage 30 and verified to be Mycoplasma-free using the MycoAlert Mycoplasma Detection Kit (Lonza). At 80% to 90% confluency, cells were seeded on poly-D-lysine–coated 96-well plates 24 hours prior to the assay (2,500 cells/well), and expression of OATP1B1 was induced with 1 μg/mL doxycycline in phenol red–free DMEM.
The CCF assay uses OATP1B1-overexpressing HEK293 cells seeded and cultured as described above. During the study, cells were preincubated at room temperature (∼ 20°C) with 0.01 μmol/L EβG in prewarmed serum-free and phenol red–free DMEM for 1 hour. Following preincubation, each well was spiked with 1 μL of a stock solution containing 0.1, 1, or 10 mmol/L of positive control (EβG), negative control (glucose), test compound dissolved in Dimethylsulfoxide (DMSO), or DMSO only as a vehicle control. Following a 30-minute after incubation with a test compound, the assay was stopped by three consecutive washes with PBS at 4°C. Finally, cells were solubilized with 150 μL of 1% Triton X-100 in PBS for 2 hours at room temperature under constant agitation. A volume of 100 μL of cell lysate was transferred to clear-bottom 96-well isoplates, 200 μL of MicroScint-PS (PerkinElmer) scintillation fluid was added to each sample-containing well, and the plate was subsequently vortex-mixed for 30 seconds. Total radioactivity was determined on a MicroBeta microplate scintillation counter (PerkinElmer), and the resulting counts were then normalized to total protein as determined using a Pierce protein assay (Thermo Fisher Scientific).

OATP2B1 = settings: General Comments; ref PMID#25165131; cited from earlier work
OCTN2 = tested on: OCTN2; set-up: method as in PMID#25165131; settings: General Comments; ref PMID#25165131; cited from earlier work
OATP1A2 = settings: General Comments; ref PMID#25165131; cited from earlier work

## Cc1ccc(Nc2nccc(N(C)c3ccc4c(C)n(C)nc4c3)n2)cc1S(N)(=O)=O [Pazopanib]
OATP1B1 [1]
  previously claimed to be substrates of OATP1B1: substrates of OATP1B1
  reported to inhibit OATP1B1: reported to inhibit OATP1B1
VEGFR2
  VEGFR kinase activity after pazopanib: markedly reduced kinase activity

## CC[C@H](C)C(=O)O[C@H]1C[C@H](O)C=C2C=C[C@H](C)[C@H](CC[C@@H](O)C[C@@H](O)CC(=O)O)[C@H]21 [pravastatin]
OATP1B1 [2]
  efflux of preloaded radiolabeled EβG induced by control substrates: induced significant efflux

## FC(F)(F)c1ccc(CNc2ccc(Cc3c[nH]c4ncc(Cl)cc34)cn2)cn1 [Pexidartinib]
OATP1B1 [2]; 1, 10 and 100 μmol/L
  pattern of efflux vs concentration in CCF assay: solely at lower concentrations

## CO[C@]1(C(=O)N[C@@H](C)c2ccc(-n3cc(F)cn3)nc2)CC[C@H](c2nc(C)cc(Nc3cc(C)[nH]n3)n2)CC1 [Pralsetinib]
OATP1B1 [2]; 1, 10 and 100 μmol/L
  pattern of efflux vs concentration in CCF assay: solely at lower concentrations
OATP1B1 [1]
  reported to inhibit OATP1B1: reported to inhibit OATP1B1

## C[C@]12CC[C@@H]3c4ccc(O)cc4CC[C@H]3[C@@H]1CC[C@@H]2O[C@@H]1O[C@H](C(=O)O)[C@@H](O)[C@H](O)[C@H]1O [EβG, estradiol [6,7-^3H(N)]-17β-D-glucuronide]
OATP1B1 [2]
  efflux of preloaded radiolabeled EβG induced by control substrates: induced significant efflux

## CC(C)(C)c1nc(-c2cccc(NS(=O)(=O)c3c(F)cccc3F)c2F)c(-c2ccnc(N)n2)s1 [Dabrafenib]
OATP1B1 [2]; 1, 10 and 100 μmol/L
  pattern of efflux vs concentration in CCF assay: solely at lower concentrations

## C=CC(=O)Nc1cc(Nc2nccc(-c3cn(C)c4ccccc34)n2)c(OC)cc1N(C)CCN(C)C [Osimertinib]
OATP1B1 [2]; 1, 10 and 100 μmol/L
  pattern of efflux vs concentration in CCF assay: clearly dependent on concentration

## CCN(CC)CCNC(=O)c1c(C)[nH]c(/C=C2\C(=O)Nc3ccc(F)cc32)c1C [Sunitinib]
OATP1B1 [2]
  pattern of efflux vs concentration in CCF assay: clearly dependent on concentration

## COC(=O)N[C@@H](C)CNc1nccc(-c2cn(C(C)C)nc2-c2cc(Cl)cc(NS(C)(=O)=O)c2F)n1 [Encorafenib]
OATP1B1 [1]
  reported to inhibit OATP1B1: reported to inhibit OATP1B1

## Cc1cn(-c2cc(NC(=O)c3ccc(C)c(Nc4nccc(-c5cccnc5)n4)c3)cc(C(F)(F)F)c2)cn1 [Nilotinib]
OATP1B1 [2]; 1, 10 and 100 μmol/L
  pattern of efflux vs concentration in CCF assay: solely at lower concentrations

## CO[C@H]1/C=C/O[C@@]2(C)Oc3c(C)c(O)c4c(O)c(c(/C=N/N5CCN(C)CC5)c(O)c4c3C2=O)NC(=O)/C(C)=C\C=C\[C@H](C)[C@H](O)[C@@H](C)[C@@H](O)[C@@H](C)[C@H](OC(C)=O)[C@@H]1C [rifampin]
OATP1B1 [2]
  efflux of preloaded radiolabeled EβG induced by control substrates: induced significant efflux

## Cc1cc(Nc2ncc(Cl)c(Nc3ccccc3S(=O)(=O)C(C)C)n2)c(OC(C)C)cc1C1CCNCC1 [Ceritinib]
OATP1B1 [2]; 1, 10 and 100 μmol/L
  pattern of efflux vs concentration in CCF assay: clearly dependent on concentration

## COC(=O)c1ccc2c(c1)NC(=O)/C2=C(\Nc1ccc(N(C)C(=O)CN2CCN(C)CC2)cc1)c1ccccc1 [Nintedanib]
OATP1B1 [2]; 1, 10 and 100 μmol/L
  pattern of efflux vs concentration in CCF assay: clearly dependent on concentration

## CCOc1cc2ncc(C#N)c(Nc3ccc(OCc4ccccn4)c(Cl)c3)c2cc1NC(=O)/C=C/CN(C)C [Neratinib]
OATP2B1
  IC50: 2680 nM
OCTN2
  OCTN2 inhibition (in words): No inhibition of OATP1B1 and OCTN2 was observed at concentrations up to 10 µM
OATP1A2
  IC50: 390 nM

## COc1cc2nccc(Oc3ccc(NC(=O)C4(C(=O)Nc5ccc(F)cc5)CC4)cc3)c2cc1OC [Cabozantinib]
OATP1B1 [2]; 1, 10 and 100 μmol/L
  pattern of efflux vs concentration in CCF assay: solely at lower concentrations

## Cc1ccc(C(=O)Nc2ccc(CN3CCN(C)CC3)c(C(F)(F)F)c2)cc1C#Cc1cnc2cccnn12 [Ponatinib]
OATP1B1 [1]
  Interaction: Substrate OATP1B1: N
  OATP1B1 inhibition (in words): Inhibits P-gp( IC50 =0.49uM), BCRP (IC50 = 0.013 µM). Did not inhibit OATP1B1, OATP1B3, OCT1, OCT2, OAT1, or OAT3. Not a substrate of OATP1B1, OATP1B3, or OCT1.
  OATP1B1 substrate (in words): Inhibits P-gp( IC50 =0.49uM), BCRP (IC50 = 0.013 µM). Did not inhibit OATP1B1, OATP1B3, OCT1, OCT2, OAT1, or OAT3. Not a substrate of OATP1B1, OATP1B3, or OCT1.

## Cc1nc(Nc2ncc(C(=O)Nc3c(C)cccc3Cl)s2)cc(N2CCN(CCO)CC2)n1 [Dasatinib]
OATP1B1 [2]; 1, 10 and 100 μmol/L
  pattern of efflux vs concentration in CCF assay: solely at lower concentrations

## COc1cc2c(Nc3ccc(Br)cc3F)ncnc2cc1OCC1CCN(C)CC1 [Vandetanib]
OATP1B1 [2]; 1, 10 and 100 μmol/L
  pattern of efflux vs concentration in CCF assay: clearly dependent on concentration

## CS(=O)(=O)CCNCc1ccc(-c2ccc3ncnc(Nc4ccc(OCc5cccc(F)c5)c(Cl)c4)c3c2)o1 [Lapatinib]
OATP1B1 [2]; 1, 10 and 100 μmol/L
  pattern of efflux vs concentration in CCF assay: solely at lower concentrations

## Cn1cnc2c(F)c(Nc3ccc(Br)cc3Cl)c(C(=O)NOCCO)cc21 [Selumetinib]
OATP1B1 [2]; 1, 10 and 100 μmol/L
  pattern of efflux vs concentration in CCF assay: solely at lower concentrations

## CNC(=O)c1ccccc1Sc1ccc2c(/C=C/c3ccccn3)n[nH]c2c1 [Axitinib]
OATP1B1 [2]; 1, 10 and 100 μmol/L
  pattern of efflux vs concentration in CCF assay: solely at lower concentrations
OATP1B1 [1]
  previously claimed to be substrates of OATP1B1: substrates of OATP1B1

## O=C(c1ccc(F)c(F)c1Nc1ccc(I)cc1F)N1CC(O)([C@@H]2CCCCN2)C1 [Cobimetinib]
OATP1B1 [2]; 1, 10 and 100 μmol/L
  pattern of efflux vs concentration in CCF assay: clearly dependent on concentration

## C[C@@H](Oc1cc(-c2cnn(C3CCNCC3)c2)cnc1N)c1c(Cl)ccc(F)c1Cl [Crizotinib]
OATP1B1 [2]; 1, 10 and 100 μmol/L
  pattern of efflux vs concentration in CCF assay: clearly dependent on concentration
OATP1B1 [1]
  previously claimed to be substrates of OATP1B1: substrates of OATP1B1

## OC[C@H]1OC(O)[C@H](O)[C@@H](O)[C@@H]1O (some centres unmarked) [glucose]
OATP1B1 [2]
  efflux of preloaded radiolabeled EβG induced by control substrates: failed to induce efflux

## COc1cc(Nc2ncc(F)c(Nc3ccc4c(n3)N(COP(=O)(O)O)C(=O)C(C)(C)O4)n2)cc(OC)c1OC [Fostamatinib]
OATP1B1 [2]
  hit in CCF assay (efflux >50% relative to EβG): hits

## C[C@]12CC[C@@H]3c4ccc(OS(=O)(=O)O)cc4CC[C@H]3[C@@H]1CCC2=O [E3S, estrone-3-sulfate]
OATP1B1 [2]
  efflux of preloaded radiolabeled EβG induced by control substrates: induced significant efflux

## Cc1cc(Nc2ncnc3ccc(NC4=NC(C)(C)CO4)cc23)ccc1Oc1ccn2ncnc2c1 [Tucatinib]
OATP1B1 [2]; 1, 10 and 100 μmol/L
  pattern of efflux vs concentration in CCF assay: solely at lower concentrations

## CNC(=O)c1cc(Oc2ccc(NC(=O)Nc3ccc(Cl)c(C(F)(F)F)c3)cc2)ccn1 [Sorafenib]
OATP1B1 [2]
  hit in CCF assay (efflux >50% relative to EβG): hits
OATP1B1 [1]
  previously claimed to be substrates of OATP1B1: substrates of OATP1B1
